Measured values published in publication PMC314469, “Protein Interaction Networks by Proteome Peptide Scanning” (PLoS Biology, 2004).

Tested on: Myo5 SH3 domain
Assay: SPOT analysis of cellulose-bound peptides (WISE), Myo5 SH3 domain (Dataset S4)
Assay type: binding, Saccharomyces cerevisiae
Settings: for The normalized value in BLU units: Myo5 SH3 domain
[1] = SPOT analysis of membrane-synthesized peptides probed with Myo5 SH3 domain, normalized value
[2] = SPOT analysis of cellulose-bound peptides probed with Myo5 SH3 domain, normalized value
[3] = SPOT analysis of cellulose-bound 14-mer yeast proteome peptides, normalized value, mean where the peptide was synthesized more than once
[4] = SPOT analysis of membrane-bound peptides, normalized value (see methods)

GDHPKGPPPPPPPD
The normalized value in BLU units (SPOT analysis, Myo5 SH3) [1]: 40130.9 BLU

IARSFTIPFLPKIP
The normalized value in BLU units (SPOT analysis, Myo5 SH3) [2]: 204.5 BLU

YEGRFWNPENPYKF
The normalized value in BLU units [3]: 162.7 BLU

KLAILTCPFEPPKP
The normalized value in BLU units [3]: 173.2 BLU

NPIPKSVPLHPKSG
The normalized value in BLU units [4]: 363.8 BLU

AVVYKLKPYIPSLS
The normalized value in BLU units [4]: 112.0 BLU

CRHLKLVPSTPMDI
The normalized value in BLU units [4]: 361.8 BLU

RTFFKLPPNLPEAE
The normalized value in BLU units [4]: 2608.2 BLU

FVFFKSLPDLPKPQ
The normalized value in BLU units (SPOT analysis, Myo5 SH3) [1]: 859.9 BLU

LKKQKAIPSSPCGM
The normalized value in BLU units [4]: 306.9 BLU

LTKIRRRPQQPLTD
The normalized value in BLU units (SPOT analysis, Myo5 SH3) [1]: 393.3 BLU

VLSKFIKPKNPSLV
The normalized value in BLU units (SPOT analysis, Myo5 SH3) [2]: 319.5 BLU

VAVPFTLPVIPYDL
The normalized value in BLU units (SPOT analysis, Myo5 SH3) [2]: 240.5 BLU

PKKSRVLPPLPFPL
The normalized value in BLU units [3]: 3587.4 BLU

WLGNKYDPENPFND
The normalized value in BLU units (SPOT analysis, Myo5 SH3) [1]: 88.8 BLU

IDIPRTNPHIPLYQ
The normalized value in BLU units [4]: 139.2 BLU

AAMNLETPSNPDSA
The normalized value in BLU units [3]: 84.9 BLU

KELIYKQPSGPGLV
The normalized value in BLU units (SPOT analysis, Myo5 SH3) [2]: 79.3 BLU

NDDKKTEPDKPAFS
The normalized value in BLU units [4]: 140.5 BLU

FIKNKAKPLIPIEL
The normalized value in BLU units [4]: 656.3 BLU

DEFNRNTPPQPSLL
The normalized value in BLU units (SPOT analysis, Myo5 SH3) [1]: 118.0 BLU

PFIRRYTPLKPITK
The normalized value in BLU units (SPOT analysis, Myo5 SH3) [1]: 649.2 BLU

GQIDRDKPSEPERT
The normalized value in BLU units (SPOT analysis, Myo5 SH3) [1]: 100.5 BLU

LPEELMRPKVPELL
The normalized value in BLU units (SPOT analysis, Myo5 SH3) [2]: 145.4 BLU

AAMMLGNPMAPAVQ
The normalized value in BLU units [3]: 256.9 BLU

IKMSRSPPRPPSLK
The normalized value in BLU units (SPOT analysis, Myo5 SH3) [1]: 17731.3 BLU

TLDEKNLPRLPTPF
The normalized value in BLU units (SPOT analysis, Myo5 SH3) [1]: 205.2 BLU

WETWLYKPGMPPRP
The normalized value in BLU units [3]: 255.2 BLU

YLTEFSRPIPPTPS
The normalized value in BLU units [3]: 168.8 BLU

IAGMLMVPESPRFL
The normalized value in BLU units [3]: 255.1 BLU

GEMVKLTPKNPFYK
The normalized value in BLU units (SPOT analysis, Myo5 SH3) [1]: 408.3 BLU

VVNEKEVPAEPETQ
The normalized value in BLU units (SPOT analysis, Myo5 SH3) [1]: 100.0 BLU

EPEPLMSPVPPSSA
The normalized value in BLU units [3]: 215.2 BLU

TDLFKPLPEPPTEL
The normalized value in BLU units (SPOT analysis, Myo5 SH3) [1]: 23.4 BLU

QFSGLLEPSLPNNM
The normalized value in BLU units [3]: 84.4 BLU

KLGRFTNPQQPRED
The normalized value in BLU units (SPOT analysis, Myo5 SH3) [2]: 227.3 BLU

NLLSLENPVVPSHY
The normalized value in BLU units (SPOT analysis, Myo5 SH3) [2]: 75.6 BLU

SELYYEGPETPTPS
The normalized value in BLU units [3]: 50.5 BLU

KNILKVCPVLPSIL
The normalized value in BLU units (SPOT analysis, Myo5 SH3) [1]: 117.9 BLU

FYKEKAKPLEPILD
The normalized value in BLU units [4]: 87.7 BLU

QLVTLISPYDPNFK
The normalized value in BLU units [3]: 177.5 BLU

KLKSLNLPQLPPPK
The normalized value in BLU units [3]: 674.9 BLU

AKVNKCPPDHPYIQ
The normalized value in BLU units (SPOT analysis, Myo5 SH3) [1]: 164.3 BLU

ELYYLNDPKYPGTK
The normalized value in BLU units [3]: 0.0 BLU

VTDIKLTPTDPLVG
The normalized value in BLU units (SPOT analysis, Myo5 SH3) [1]: 851.7 BLU

QFSPMDDPKSPTPM
The normalized value in BLU units (SPOT analysis, Myo5 SH3) [2]: 121.0 BLU

HLDSFSPPFSPSTT
The normalized value in BLU units [3]: 120.7 BLU

TLKKFVLPCLPRKN
The normalized value in BLU units (SPOT analysis, Myo5 SH3) [2]: 504.4 BLU

TQSGRMGPSEPKHR
The normalized value in BLU units [3]: 455.6 BLU

IAKLKRKPVVPRLK
The normalized value in BLU units [4]: 888.5 BLU

KQAKRAPPSSPYVV
The normalized value in BLU units (SPOT analysis, Myo5 SH3) [1]: 295.0 BLU

GRSLRKRPTSPSIS
The normalized value in BLU units [4]: 819.6 BLU

DARPFLKPVDPIAL
The normalized value in BLU units (SPOT analysis, Myo5 SH3) [2]: 126.2 BLU

TKFTKPKPKQPVLP
The normalized value in BLU units (SPOT analysis, Myo5 SH3) [1]: 445.1 BLU

NLAPFTQPDFPFQT
The normalized value in BLU units [3]: 81.4 BLU

EVENKLRPDLPVKN
The normalized value in BLU units [4]: 40.7 BLU

KLPKLNVPLNPKGK
The normalized value in BLU units (SPOT analysis, Myo5 SH3) [2]: 304.7 BLU

FFNRYPNPYSPHVL
The normalized value in BLU units (SPOT analysis, Myo5 SH3) [2]: 136.7 BLU

IRTYKVVPLGPKAG
The normalized value in BLU units [4]: 100.2 BLU

YWGKKFEPERPFEF
The normalized value in BLU units (SPOT analysis, Myo5 SH3) [1]: 385.0 BLU
